Source: patent US9023847B2, “Azaheterocyclic compounds” (Merck Patent GmbH, priority 2009, dated 2015)

Molecular target: T1, P70S6K (T412E mutant, Millipore) (Homo sapiens, UniProt P23443, T412E)
T1 construct: purchased Millipore
Test: p70S6K enzyme assay
Format: biochemical
Details: class symbol; 3 nM P70S6K, 24 μM ATP; read-out: IC50 (p70S6K)
Summary of the method: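 T412E-mutant P70S6K (3 nM) with 24 μM ATP and 1 μM FITC-AHA-AKRRRLSSLRA-OH S6-derived peptide in 100 mM Hepes pH 7.5, 5 mM MgCl2, 1 mM DTT, 0.015% Brij; 90 min at 25° C, EDTA stop. Phosphorylated product and substrate peptide separated and quantified by microfluidic capillary electrophoresis (Caliper LabChip 3000).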

T1 sequence (P23443 whole entry T412E): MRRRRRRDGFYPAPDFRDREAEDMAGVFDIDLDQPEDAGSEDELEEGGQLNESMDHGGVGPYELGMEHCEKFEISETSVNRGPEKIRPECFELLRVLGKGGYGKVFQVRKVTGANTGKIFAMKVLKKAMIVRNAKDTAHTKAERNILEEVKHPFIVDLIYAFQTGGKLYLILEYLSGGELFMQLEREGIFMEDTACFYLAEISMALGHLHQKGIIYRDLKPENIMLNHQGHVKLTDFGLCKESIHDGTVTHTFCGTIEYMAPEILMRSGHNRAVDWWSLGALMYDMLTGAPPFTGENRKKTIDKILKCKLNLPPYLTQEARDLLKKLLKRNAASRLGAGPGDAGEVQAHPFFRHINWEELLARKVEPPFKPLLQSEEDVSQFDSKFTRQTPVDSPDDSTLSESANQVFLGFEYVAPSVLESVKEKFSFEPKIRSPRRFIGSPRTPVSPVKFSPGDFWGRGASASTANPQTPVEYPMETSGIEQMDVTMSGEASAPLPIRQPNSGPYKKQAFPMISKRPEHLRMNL

SMILES | IC50 [nM]
O=C(NC(CO)C(=O)NCc1ccccc1)c1sccc1Nc1ccnc2[nH]ccc12 (centres unmarked) [Example 88, 3-(1H-Pyrrolo[2,3-b]pyridin-4-ylamino)-thiophene-2-carboxylic acid (1-benzylcarbamoyl-2-hydroxy-ethyl)-amide] | 100 to 1000
O=C(NC(CO)C(=O)NCc1ccc(Cl)c(C(F)(F)F)c1)c1sccc1Nc1ccnc2[nH]ccc12 (centres unmarked) [Example 89, 3-(1H-Pyrrolo[2,3-b]pyridin-4-ylamino)-thiophene-2-carboxylic acid [1-(4-chloro-3-trifluoromethyl-benzylcarbamoyl)-2-hydroxy-ethyl]-amide] | 100 to 1000
O=C(NCCNCc1ccc(Cl)c(C(F)(F)F)c1)c1sccc1Nc1ccnc2[nH]ccc12 [Example 90, 3-(1H-Pyrrolo[2,3-b]pyridin-4-ylamino)-thiophene-2-carboxylic acid [2-(4-chloro-3-trifluoromethyl-benzylamino)-ethyl]-amide] | < 100
CC(C)(C)OC(=O)N1CCCC(NC(=O)c2sccc2Nc2ccnc3[nH]ccc23)C1 (centres unmarked) [Example 91, 3-{[3-(1H-Pyrrolo[2,3-b]pyridin-4-ylamino)-thiophene-2-carbonyl]-amino}-piperidine-1-carboxylic acid tert-butyl ester] | 100 to 1000
CC(C)(C)OC(=O)N1CCC[C@@H]1CNC(=O)c1sccc1Nc1ccnc2[nH]ccc12 [Example 92, (R)-2-({[3-(1H-Pyrrolo[2,3-b]pyridin-4-ylamino)-thiophene-2-carbonyl]-amino}methyl)pyrrolidine-1-carboxylic acid tert-butyl ester] | 100 to 1000
O=C(NC[C@H]1CCCN1)c1sccc1Nc1ccnc2[nH]ccc12 [Example 93, 3-(1H-Pyrrolo[2,3-b]pyridin-4-ylamino)-thiophene-2-carboxylic acid ((R)-1-pyrrolidin-2-ylmethyl)-amide] | 100 to 1000
COc1cccc(CNC(=O)c2sccc2Nc2ccnc3[nH]ccc23)c1 [Example 94, 3-(1H-Pyrrolo[2,3-b]pyridin-4-ylamino)-thiophene-2-carboxylic acid 3-methoxybenzylamide] | < 100
COc1cc(CNC(=O)c2sccc2Nc2ccnc3[nH]ccc23)cc(OC)c1 [Example 95, 3-(1H-Pyrrolo[2,3-b]pyridin-4-ylamino)-thiophene-2-carboxylic acid 3,5-dimethoxy-benzylamide] | 100 to 1000
CC(C)[C@@H](CO)NC(=O)c1sccc1Nc1ccnc2[nH]ccc12 [Example 96, 3-(1H-Pyrrolo[2,3-b]pyridin-4-ylamino)-thiophene-2-carboxylic acid ((S)-1-hydroxymethyl-2-methyl-propyl)-amide] | 100 to 1000
CC(C)C[C@@H](CO)NC(=O)c1sccc1Nc1ccnc2[nH]ccc12 [Example 97, 3-(1H-Pyrrolo[2,3-b]pyridin-4-ylamino)-thiophene-2-carboxylic acid ((S)-1-hydroxymethyl-3-methyl-butyl)-amide] | 100 to 1000
O=C(NCc1ccc(Cl)c(C(F)(F)F)c1)c1sccc1Nc1ccnc2[nH]ccc12 [Example 98, 3-(1H-Pyrrolo[2,3-b]pyridin-4-ylamino)-thiophene-2-carboxylic acid 4-chloro-3-trifluoromethyl-benzylamide] | < 100
O=C(NCC(O)c1ccccc1)c1sccc1Nc1ccnc2[nH]ccc12 (centres unmarked) [Example 99, 3-(1H-Pyrrolo[2,3-b]pyridin-4-ylamino)-thiophene-2-carboxylic acid (2-hydroxy-2-phenyl-ethyl)-amide] | < 100
O=C(Nc1cccc(CNC(=O)c2sccc2Nc2ccnc3[nH]ccc23)c1)c1ccc(F)cc1 [Example 100, 3-(1H-Pyrrolo[2,3-b]pyridin-4-ylamino)-thiophene-2-carboxylic acid 3-(4-fluoro-benzoylamino)-benzylamide] | < 100
O=C(NCc1cn(Cc2ccccc2)nn1)c1sccc1Nc1ccnc2[nH]ccc12 [Example 101, 3-(1H-Pyrrolo[2,3-b]pyridin-4-ylamino)-thiophene-2-carboxylic acid (1-benzyl-1H-[1,2,3]triazol-4-ylmethyl)-amide] | 100 to 1000
CC(C)(C)OC(=O)N1CCC(NC(=O)c2ccsc2Nc2ccnc3[nH]ccc23)C1 (centres unmarked) [Example 102, 3-{[2-(1H-Pyrrolo[2,3-b]pyridin-4-ylamino)-thiophene-3-carbonyl]-amino}-pyrrolidine-1-carboxylic acid tert-butyl ester] | 100 to 1000
O=C(NC1CCNC1)c1ccsc1Nc1ccnc2[nH]ccc12 (centres unmarked) [Example 103, 2-(1H-Pyrrolo[2,3-b]pyridin-4-ylamino)-thiophene-3-carboxylic acid pyrrolidin-3-ylamide] | < 100
CC(C)(C)OC(=O)N1CCCC(NC(=O)c2ccsc2Nc2ccnc3[nH]ccc23)C1 (centres unmarked) [Example 104, 3-{[2-(1H-Pyrrolo[2,3-b]pyridin-4-ylamino)-thiophene-3-carbonyl]-amino}-piperidine-1-carboxylic acid tert-butyl ester] | 100 to 1000
O=C(NC1CCCNC1)c1ccsc1Nc1ccnc2[nH]ccc12 (centres unmarked) [Example 105, 2-(1H-Pyrrolo[2,3-b]pyridin-4-ylamino)-thiophene-3-carboxylic acid piperidin-3-ylamide] | < 100
NCC(NC(=O)c1sccc1Nc1ccnc2[nH]ccc12)c1cccc(F)c1 (centres unmarked) [Example 106, 3-(1H-Pyrrolo[2,3-b]pyridin-4-ylamino)-thiophene-2-carboxylic acid [2-amino-1-(3-fluoro-phenyl)-ethyl]-amide] | < 100
COc1ccccc1C(CN)NC(=O)c1sccc1Nc1ccnc2[nH]ccc12 (centres unmarked) [Example 107, 3-(1H-Pyrrolo[2,3-b]pyridin-4-ylamino)-thiophene-2-carboxylic acid [2-amino-1-(2-methoxy-phenyl)-ethyl]-amide] | < 100
NCC(NC(=O)c1ccsc1Nc1ccnc2[nH]ccc12)c1cccc(F)c1 (centres unmarked) [Example 108, 2-(1H-Pyrrolo[2,3-b]pyridin-4-ylamino)-thiophene-3-carboxylic acid [2-amino-1-(3-fluoro-phenyl)-ethyl]-amide] | < 100
COc1ccccc1C(CN)NC(=O)c1ccsc1Nc1ccnc2[nH]ccc12 (centres unmarked) [Example 109, 2-(1H-Pyrrolo[2,3-b]pyridin-4-ylamino)-thiophene-3-carboxylic acid [2-amino-1-(2-methoxy-phenyl)-ethyl]-amide] | < 100
COc1ccc(C(CN)NC(=O)c2ccsc2Nc2ccnc3[nH]ccc23)cc1OC (centres unmarked) [Example 110, 2-(1H-Pyrrolo[2,3-b]pyridin-4-ylamino)-thiophene-3-carboxylic acid [2-amino-1-(3,4-dimethoxy-phenyl)-ethyl]-amide] | < 100
Nc1cccc(CNC(=O)c2ccsc2Nc2ccnc3[nH]ccc23)c1 [Example 111, 2-(1H-Pyrrolo[2,3-b]pyridin-4-ylamino)-thiophene-3-carboxylic acid 3-amino-benzylamide] | < 100
O=C(NCc1ccccc1)c1ccsc1Nc1ccnc2[nH]ccc12 [Example 112, 2-(1H-Pyrrolo[2,3-b]pyridin-4-ylamino)-thiophene-3-carboxylic acid benzylamide] | < 100
COc1ccc(C(CN)NC(=O)c2sccc2Nc2ccnc3[nH]ccc23)cc1OC (centres unmarked) [Example 113, 3-(1H-Pyrrolo[2,3-b]pyridin-4-ylamino)-thiophene-2-carboxylic acid [2-amino-1-(3,4-dimethoxy-phenyl)-ethyl]-amide] | < 100
